Laboratory results as given in patent US10717730B1, “Dihydroisoquinoline compound” (SUZHOU ARK BIOPHARMACEUTICAL CO., LTD., priority 2017, dated 2020).

Legend:
[1] = Cytotoxicity CC50 (CellTiter-Glo); format: cell-based; conditions: human; HepG2.2.15 cells, four days
Procedure: HepG2.2.15 cells were seeded into 96-well white plate at 5000 cells/well and treated with serially diluted compounds. The plates were incubated in incubator with 5% CO2 at 37° C. for four days. The plate was taken out of incubator and adapted to room temperature for 30 minutes, followed by adding 25 μl CellTiter-Glo (Promega) reagent into each well and votexed at room temperature before being measured for luminance using spectrometer (Tecan Infinite® F200). The CC50 of each compound was defined as the compound concentration at which the treated well's cell viability is 50% compared to that of the DMSO treated well.

HBsAg = HBsAg assay (secreted HBsAg by CLIA in HepG2.2.15 cells); format: cell-based, hepatitis B virus (HBV); conditions: Hepatitis B virus, HepG2.2.15, 96 h
Procedure: HepG2.2.15 cells (Sells et al, Proc Natl Acad Sci USA. 1987 February; 84(4):1005-9), a constitutively HBV-expressing cell line, were cultured in DMEM medium supplemented with 10% FBS and 400 μg/mL G418, and maintained in 5% CO2 at 37° C.
HepG2.2.15 cells were seeded into 96-well plates at 3×10^4 cells/well. The next day, the cells were treated with a five-fold serial dilution series of the compound in DMSO. The final DMSO concentration in all wells was 0.5% and 0.5% DMSO was used as no drug control. After four days of incubation with compounds, the supernatants were harvested and measured for HBsAg concentration
The HBsAg chemiluminescence immunoassay (CLIA) kit was used to measure the levels of secreted HBsAg. Specifically, 50 μL of culture supernatant was transferred to the CLIA assay plate and 50 μL of enzyme conjugate reagent was added into each well. The plates were sealed and incubated for 1 hour at room temperature. The supernatant-enzyme-mixture was discarded and wells were washed for 6 times. The residual liquid was removed by plating on tissue paper. 25 μL of substrate A and B were added into each well. Luminance was measured using a spectrometer (Tecan Infinite® F200) after 10 minutes incubation. IC50 value was extrapolated based the dose-response curves generated from the data.

Structure (SMILES)	CC50 at 4 days [1] [nM]	IC50 (HBsAg) [nM]
COc1cc2c(cc1-c1ccnn1C(C)C)CC(C(C)(C)C)n1cc(C(=O)O)c(=O)cc1-2 (stereo not shown) [Example 18, 6-(tert-butyl)-9-(1-isopropyl-1H-pyrazol-5-yl)-10-methoxy-2-oxo-6,7-dihydro-2H-pyrido[2,1-a]isoquinoline-3-carboxylic acid]	50000 to 100000	77
COc1cc2c(cc1-c1c(C)cnn1C)CC(C(C)(C)C)n1cc(C(=O)O)c(=O)cc1-2 (stereo not shown) [Example 19, 6-(tert-butyl)-9-(1,4-dimethyl-1H-pyrazol-5-yl)-10-methoxy-2-oxo-6,7-dihydro-2H-pyrido[2,1-a]isoquinoline-3-carboxylic acid]	50000 to 100000	68
COc1cc2c(cc1-c1cnn(CC(=O)O)c1)CC(C(C)(C)C)n1cc(C(=O)O)c(=O)cc1-2 (stereo not shown) [Example 20, 6-(tert-butyl)-9-(1-carboxymethyl-1H-pyrazol-4-yl)-10-methoxy-2-oxo-6,7-dihydro-2H-pyrido[2,1-a]isoquinoline-3-carboxylic acid]	> 100000	7
CCOC(=O)CCn1cc(-c2cc3c(cc2OC)-c2cc(=O)c(C(=O)OCC)cn2C(C(C)(C)C)C3)cn1 (stereo not shown) [Example 21, Ethyl 6-(tert-butyl)-9-(1-(3-ethoxy-3-oxopropyl)-1H-pyrazol-4-yl)-10-methoxy-2-oxo-6,7-dihydro-2H-pyrido[2,1-a]isoquinoline-3-carboxylate]	50000 to 100000	16
COc1cc2c(cc1-c1cnn(CCC(=O)O)c1)CC(C(C)(C)C)n1cc(C(=O)O)c(=O)cc1-2 (stereo not shown) [Example 22, 6-(tert-butyl)-9-(1-(2-carboxyethyl)-1H-pyrazol-4-yl)-10-methoxy-2-oxo-6,7-dihydro-2H-pyrido[2,1-a]isoquinoline-3-carboxylic acid]	50000 to 100000	7
COc1cc2c(cc1-c1cnn(CCCC(=O)O)c1)CC(C(C)(C)C)n1cc(C(=O)O)c(=O)cc1-2 (stereo not shown) [Example 24, 6-(tert-butyl)-9-(1-(3-carboxypropyl)-1H-pyrazol-4-yl)-10-methoxy-2-oxo-6,7-dihydro-2H-pyrido[2,1-a]isoquinoline-3-carboxylic acid]	50000 to 100000	8
COc1cc2c(cc1-c1c[nH]nc1C)CC(C(C)(C)C)n1cc(C(=O)O)c(=O)cc1-2 (stereo not shown) [Example 25, 6-(tert-butyl)-10-methoxy-9-(3-methyl-1H-pyrazol-4-yl)-2-oxo-6,7-dihydro-2H-pyrido[2,1-a]isoquinoline-3-carboxylic acid]	50000 to 100000	7
COc1cc2c(cc1-c1cnc(C)s1)CC(C(C)(C)C)n1cc(C(=O)O)c(=O)cc1-2 (stereo not shown) [Example 28, 6-(tert-butyl)-10-methoxy-9-(2-methylthiazol-5-yl)-2-oxo-6,7-dihydro-2H-pyrido[2,1-a]isoquinoline-3-carboxylic acid]	> 100000	0.2
COc1cc2c(cc1-c1nncn1CCCO)CC(C(C)(C)C)n1cc(C(=O)O)c(=O)cc1-2 (stereo not shown) [Example 31, 6-(tert-butyl)-9-(4-(3-hydroxypropyl)-4H-1,2,4-triazol-3-yl)-10-methoxy-2-oxo-6,7-dihydro-2H-pyrido[2,1-a]isoquinoline-3-carboxylic acid]	50000 to 100000	826
COc1cc2c(cc1-c1ncn(CCCO)n1)CC(C(C)(C)C)n1cc(C(=O)O)c(=O)cc1-2 (stereo not shown) [Example 32, 6-(tert-butyl)-9-(1-(3-hydroxypropyl)-1H-1,2,4-triazol-3-yl)-10-methoxy-2-oxo-6,7-dihydro-2H-pyrido[2,1-a]isoquinoline-3-carboxylic acid]	50000 to 100000	97
COc1cc2c(cc1-c1ccc(C)nc1)CC(C(C)(C)C)n1cc(C(=O)O)c(=O)cc1-2 (stereo not shown) [Example 37, 6-(tert-butyl)-10-methoxy-9-(6-methylpyridin-3-yl)-2-oxo-6,7-dihydro-2H-pyrido[2,1-a]isoquinoline-3-carboxylic acid]	50000 to 100000	9
CCOC(=O)c1cn2c(cc1=O)-c1cc(OC)c(-c3ccc(C)nc3)cc1CC2C(C)(C)C (stereo not shown) [Example 55, Ethyl 6-(tert-butyl)-10-methoxy-9-(6-methylpyridin-3-yl)-2-oxo-6,7-dihydro-2H-pyrido[2,1-a]isoquinoline-3-carboxylate]	–	0.8
COc1cc2c(cc1-c1ccc(NC3CCC3)nc1)CC(C(C)(C)C)n1cc(C(=O)O)c(=O)cc1-2 (stereo not shown) [Example 56, 6-(tert-butyl)-9-(6-(cyclobutylamino)pyridin-3-yl)-10-methoxy-2-oxo-6,7-dihydro-2H-pyrido[2,1-a]isoquinoline-3-carboxylic acid]	–	1
COc1cc2c(cc1-c1ccc(NC(C)=O)nc1)CC(C(C)(C)C)n1cc(C(=O)O)c(=O)cc1-2 (stereo not shown) [Example 57, 9-(6-acetamidopyridin-3-yl)-6-(tert-butyl)-10-methoxy-2-oxo-6,7-dihydro-2H-pyrido[2,1-a]isoquinoline-3-carboxylic acid]	–	1
COc1cc2c(cc1-c1cnc(C)nc1)CC(C(C)(C)C)n1cc(C(=O)O)c(=O)cc1-2 (stereo not shown) [Example 58, 6-(tert-butyl)-10-methoxy-9-(2-methylpyrimidin-5-yl)-2-oxo-6,7-dihydro-2H-pyrido[2,1-a]isoquinoline-3-carboxylic acid]	–	4
COc1cc2c(cc1-c1cnc(N3CCCC3)nc1)CC(C(C)(C)C)n1cc(C(=O)O)c(=O)cc1-2 (stereo not shown) [Example 59, 6-(tert-butyl)-10-methoxy-2-oxo-9-(2-(pyrrolidin-1-yl)pyrimidin-5-yl)-6,7-dihydro-2H-pyrido[2,1-a]isoquinoline-3-carboxylic acid]	–	10
COc1cc2c(cc1-c1cnc(N(C)C)nc1)CC(C(C)(C)C)n1cc(C(=O)O)c(=O)cc1-2 (stereo not shown) [Example 61, 6-(tert-butyl)-9-(2-(dimethylamino)pyrimidin-5-yl)-10-methoxy-2-oxo-6,7-dihydro-2H-pyrido[2,1-a]isoquinoline-3-carboxylic acid]	–	4
COc1cc2c(cc1-c1cnc(N3CCOCC3)nc1)CC(C(C)(C)C)n1cc(C(=O)O)c(=O)cc1-2 (stereo not shown) [Example 62, 6-(tert-butyl)-10-methoxy-9-(2-morpholinylpyrimidin-5-yl)-2-oxo-6,7-dihydro-2H-pyrido[2,1-a]isoquinoline-3-carboxylic acid]	–	5
COc1cc2c(cc1-c1cnc(NC3CC3)nc1)CC(C(C)(C)C)n1cc(C(=O)O)c(=O)cc1-2 (stereo not shown) [Example 64, 6-(tert-butyl)-9-(2-(cyclopropylamino)pyrimidin-5-yl)-10-methoxy-2-oxo-6,7-dihydro-2H-pyrido[2,1-a]isoquinoline-3-carboxylic acid]	–	7
COc1cc2c(cc1-c1cnc(N)nc1)CC(C(C)(C)C)n1cc(C(=O)O)c(=O)cc1-2 (stereo not shown) [Example 65, 9-(2-aminopyrimidin-5-yl)-6-(tert-butyl)-10-methoxy-2-oxo-6,7-dihydro-2H-pyrido[2,1-a]isoquinoline-3-carboxylic acid]	–	80
COc1ncc(-c2cc3c(cc2OC)-c2cc(=O)c(C(=O)O)cn2C(C(C)(C)C)C3)cn1 (stereo not shown) [Example 66, 6-(tert-butyl)-10-methoxy-9-(2-methoxypyrimidin-5-yl)-2-oxo-6,7-dihydro-2H-pyrido[2,1-a]isoquinoline-3-carboxylic acid]	–	0.8
COc1cc2c(cc1-c1cnc(NCC3CC3)nc1)CC(C(C)(C)C)n1cc(C(=O)O)c(=O)cc1-2 (stereo not shown) [Example 67, 6-(tert-butyl)-9-(2-(cylcopropylmethylamino)pyrimidin-5-yl)-10-methoxy-2-oxo-6,7-dihydro-2H-pyrido[2,1-a]isoquinoline-3-carboxylic acid]	–	0.3
COc1cc2c(cc1-c1cnc(Cl)nc1)CC(C(C)(C)C)n1cc(C(=O)O)c(=O)cc1-2 (stereo not shown) [Example 68, 6-(tert-butyl)-9-(2-chloropyrimidin-5-yl)-10-methoxy-2-oxo-6,7-dihydro-2H-pyrido[2,1-a]isoquinoline-3-carboxylic acid]	–	0.6
COc1cc2c(cc1-c1cnc(NC3CCC3)nc1)CC(C(C)(C)C)n1cc(C(=O)O)c(=O)cc1-2 (stereo not shown) [Example 76, 6-(tert-butyl)-9-(2-(cyclobutylamino)pyrimidin-5-yl)-10-methoxy-2-oxo-6,7-dihydro-2H-pyrido[2,1-a]isoquinoline-3-carboxylic acid]	–	0.4
COc1cc2c(cc1-c1cnc(N3CCC(C(=O)O)C3)nc1)CC(C(C)(C)C)n1cc(C(=O)O)c(=O)cc1-2 (stereo not shown) [Example 77, 6-(tert-butyl)-9-(2-(3-carboxypyrrolidin-1-yl)pyrimidin-5-yl)-10-methoxy-2-oxo-6,7-dihydro-2H-pyrido[2,1-a]isoquinoline-3-carboxylic acid]	–	150
COc1cc2c(cc1-c1cnc(NCC(=O)O)nc1)CC(C(C)(C)C)n1cc(C(=O)O)c(=O)cc1-2 (stereo not shown) [Example 78, 6-(tert-butyl)-9-(2-((carboxymethyl)amino)pyrimidin-5-yl)-10-methoxy-2-oxo-6,7-dihydro-2H-pyrido[2,1-a]isoquinoline-3-carboxylic acid]	–	45
